Experimental data published in patent US5591742A, “Pyridopyrimidinone antianginal agents” (Pfizer Inc., priority 1992, dated 1997).

Legend:
[1] = Safety profile in rabbit (i.v. or i.d.); format: in vivo
[2] = test system: calcium/calmodulin (Ca/CAM)-independent cGMP PDE; test: PDE inhibition: Ca/CAM-independent cGMP PDE from rabbit platelets; format: biochemical; settings: IC50 cGMP-inhibited cAMP PDE / IC50 Ca/CAM-independent cGMP PDE
Protocol: (§1) Phosphodiesterase activity
(§2) Compound affinities for cGMP and cAMP PDEs are assessed by determination of their IC50 values (the concentration of inhibitor required for 50% inhibition of enzyme activity). The PDE enzymes are isolated from rabbit platelets and rat kidney, essentially by the method of W. J. Thompson et al. (Biochem., 1971, 10, 311). The calcium/calmodulin (Ca/CAM)--independent cGMP PDE and the cGMP-inhibited cAMP PDE enzymes are obtained from rabbit platelets whilst, of the four major PDE enzymes of the rat kidney, the Ca/CAM-dependent cGMP PDE (fraction I) is isolated. Assays are performed using a modification of the "batch" method of W. J. Thompson and M. M. Appleman (Biochem., 1979, 18, 5228).

[3] = biological target: T1, calcium/calmodulin (Ca/CAM)-independent cGMP PDE (Oryctolagus cuniculus, UniProt G1SX67); test: as above; format: biochemical; settings: Ca/CAM-independent cGMP PDE, rabbit platelets, in vitro
T1 construct: The PDE enzymes are isolated from rabbit platelets and rat kidney; from tissue; host or cells: rabbit platelets
Protocol: as §1, §2

cGMP-inhibited cAMP PDE = biological target: T2, cGMP-inhibited cAMP PDE (Oryctolagus cuniculus, UniProt G1ST54); test: PDE inhibition: cGMP-inhibited cAMP PDE from rabbit platelets; format: biochemical; settings: in vitro
T2 construct: from tissue; host or cells: rabbit platelets
T2 sequence (G1ST54 1-1128): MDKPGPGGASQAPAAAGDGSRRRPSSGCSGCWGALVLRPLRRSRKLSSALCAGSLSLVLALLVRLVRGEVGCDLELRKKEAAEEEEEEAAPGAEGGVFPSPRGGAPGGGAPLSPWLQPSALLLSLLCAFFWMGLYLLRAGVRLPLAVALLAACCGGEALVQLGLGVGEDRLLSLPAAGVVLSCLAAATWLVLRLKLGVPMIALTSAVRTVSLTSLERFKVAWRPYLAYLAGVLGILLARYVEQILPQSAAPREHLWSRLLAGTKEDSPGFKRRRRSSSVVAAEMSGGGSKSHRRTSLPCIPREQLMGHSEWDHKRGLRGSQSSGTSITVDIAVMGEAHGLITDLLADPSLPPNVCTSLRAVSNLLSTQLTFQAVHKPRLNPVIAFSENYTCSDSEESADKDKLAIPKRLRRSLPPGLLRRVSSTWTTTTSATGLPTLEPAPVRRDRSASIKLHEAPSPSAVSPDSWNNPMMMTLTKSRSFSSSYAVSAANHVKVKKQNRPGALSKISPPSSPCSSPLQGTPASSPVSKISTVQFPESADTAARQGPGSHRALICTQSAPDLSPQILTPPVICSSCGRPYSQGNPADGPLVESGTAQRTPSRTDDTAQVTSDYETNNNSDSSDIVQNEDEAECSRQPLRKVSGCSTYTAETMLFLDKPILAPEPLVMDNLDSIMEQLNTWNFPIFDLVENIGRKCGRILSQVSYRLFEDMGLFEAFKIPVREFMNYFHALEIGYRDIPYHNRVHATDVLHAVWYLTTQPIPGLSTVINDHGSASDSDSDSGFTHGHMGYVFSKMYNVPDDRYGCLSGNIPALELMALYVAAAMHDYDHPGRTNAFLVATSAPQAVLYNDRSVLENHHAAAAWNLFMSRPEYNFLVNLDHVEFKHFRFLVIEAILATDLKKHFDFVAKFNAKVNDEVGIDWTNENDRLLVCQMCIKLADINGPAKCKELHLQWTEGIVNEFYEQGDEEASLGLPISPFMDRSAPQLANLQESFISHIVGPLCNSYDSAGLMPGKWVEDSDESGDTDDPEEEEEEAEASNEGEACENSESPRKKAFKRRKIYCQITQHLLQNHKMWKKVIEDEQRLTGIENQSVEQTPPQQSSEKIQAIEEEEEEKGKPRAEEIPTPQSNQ
Protocol: as §1, §2

SMILES | IC50 [3] | IC50 (cGMP-inhibited cAMP PDE) | untoward effects ([1]; doses up to 3 mg/kg i.d.) | SELECTIVITY RATIO [2] | untoward effects ([1]; doses up to 10 mg/kg i.d.) | untoward effects ([1]; doses up to 0.1 mg/kg i.v.) | untoward effects ([1]; doses up to 1 mg/kg i.v.)
CCCc1ccnc2c(=O)[nH]c(-c3cc(S(=O)(=O)N4CCNCC4)ccc3OCC)nc12 [Example 3, 2-[2-Ethoxy-5-(1-piperazinylsulphonyl]phenyl]-8-n-propylprido [3,2-d]pyrimidin-4(3H) -one] | – | – | – | – | no untoward effects being observed | – | –
CCCc1ccnc2c(=O)[nH]c(-c3cc(S(=O)(=O)N(C)CCC(=O)OCC)ccc3OCC)nc12 [Example 5, 2-[2 -Ethoxy-5-(N-2-ethoxycarbonylethyl-N-methyl-sulphamoyl)phenyl]-8-n-propylpyrido[3,2-d]pyrimidin-4(3H)-one] | 14 nM | 8300 nM | – | 592 | – | – | –
CCCc1ccnc2c(=O)[nH]c(-c3cc(S(=O)(=O)NCCN4CCNC4=O)ccc3OCC)nc12 [Example 8, 2-{2-Ethoxy-5-[2-(1-imidazolidin-2-onyl)ethyl-sulphamoyl]phenyl}-8-n-propylprido[3,2-d]pryimidin-4 (3H)-one] | – | – | no untoward effects being observed | – | – | – | –
CCCc1ccnc2c(=O)[nH]c(-c3cc(NS(=O)(=O)c4cccnc4)ccc3OCC)nc12 [Example 12A, 2-[2-Ethoxy-5-(3-pyridylsulphonylamino)phenyl]-8-n-propylpyrido [3,2-d]pyrimidin-4(3H) -one] | 19 nM | 4600 nM | – | 242 | – | – | –

Now from value to molecule, other results behind:

IC50 [3] | IC50 (cGMP-inhibited cAMP PDE) | SMILES | untoward effects ([1]; doses up to 3 mg/kg i.d.) | SELECTIVITY RATIO [2] | untoward effects ([1]; doses up to 10 mg/kg i.d.) | untoward effects ([1]; doses up to 0.1 mg/kg i.v.) | untoward effects ([1]; doses up to 1 mg/kg i.v.)
21 nM | 19000 nM | CCCc1ccnc2c(=O)[nH]c(-c3cc(S(=O)(=O)NCCN4CCOCC4)ccc3OCC)nc12 [Example 1, 2-[2-Ethoxy-5-(2-morpholinoethylsulphamoyl)phenyl]-8-n-propylprido [3,2,d]pyrimidin-4 (3H) -one] | no untoward effects being observed | 904 | – | – | –
26 nM | 13000 nM | CCCc1ccnc2c(=O)[nH]c(-c3cc(S(=O)(=O)N4CCN(C)CC4)ccc3OCC)nc12 [Example 2, 2-[2-Ethoxy-5(4-methyl-l-piperazinylsulphonyl)phenyl]-8-n-propylrido [3,2-d]pyrimidin-4(3H)-one] | – | 500 | – | – | –
5.6 nM | 7600 nM | CCCc1ccnc2c(=O)[nH]c(-c3cc(S(=O)(=O)N4CCC(C(=O)OCC)CC4)ccc3OCC)nc12 [Example 4, 2-[2-Ethoxy-5-(4-ethoxycarbonylpiperidinosulphonyl)-phenyl]-8-n-propylprido[3,2-d]pyrimidin-4(3H) -one] | – | 1,357 | – | – | –
9.8 nM | 11000 nM | CCCc1ccnc2c(=O)[nH]c(-c3cc(S(=O)(=O)N4CCN(CCO)CC4)ccc3OCC)nc12 [Example 7, 2-{2-Ethoxy-5-[4-(2-hydroxyethyl)-1-piperazinyl-sulphony]phenyl}-8-n-propylprido[3.2-d]pyrimidin-4(3H)-one] | – | 1,122 | – | no untoward effects being observed | –
1.2 nM | 220 nM | CCCc1ccnc2c(=O)[nH]c(-c3cc(S(=O)(=O)N4CCC(C(=O)O)CC4)ccc3OCC)nc12 [Example 9, 2-[5-(4-Carboxypiperidinosulphonyl)-2-ethoxyphenyl]-8-n-propylprido [3,2-d]pyrimidin-4(3H)-one] | – | 183 | – | – | no untoward effects being observed
25 nM | > 100000 nM | CCOc1ccc(S(=O)(=O)N2CCN(C)CC2)cc1-c1nc2c(C#N)ccnc2c(=O)[nH]1 [Example 24, 8-Cyano-2-[2-ethoxy-5-(4-methyl-1-piperazinyl-sulphonyl)phenyl]pyrido[3,2d]pyrimidin-4(3H)-one] | – | > 4,000 | – | – | –
